Read-outs that look alike come from different tables or passages of the source. Values belong to the compound of their own block, whether it stands above or below them. *1 amine or outer side, *2 acyl side, *3 side chain or, on linkers, in order; H or OH if unused. Where a SMILES comes first, the peptide text is derived from it. Bridges are numbered along the chain shown (N, C = ends). X1 = Cc1sc(C(=O)[C@@H]2CCCN2[*:2])cc1C1=C(c2cc(C(=O)[*:1])sc2C)CCC1
Experiments:
[1] = target: T1, α-chymotrypsin from bovine pancreas type II (Bos taurus, UniProt P00766); assay: α-Chymotrypsin inhibition, Ki by Lineweaver-Burk analysis
Protocol: (§7) The inhibition of trypsin and α-chymotrypsin was investigated by two methods. First, the inhibition was determined at a fixed enzyme and substrate concentration, whereas the inhibitor concentration varied. By plotting the protease activity against an inhibitor’s concentration, IC50 (the half-maximal inhibitory concentration) was determined.
(§8) Lineweaver–Burk analysis (see below), the Ki values for all peptide inhibitors were determined with high accuracy.
(§9) All measurements were performed with p-nitroaniline-based chromogenic substrates (λabs = 405 nm) in 96-well microtiter plates using
EpochTM 2 microplate spectrophotometer. For trypsin measurements the Tris buffer (50 mM Tris-HCl, 25 mM CaCl2, 0.005% Tween® […]
solutions were thoroughly mixed with the multicha nnel pipette, and the kinetics of substrate hydrolysis was recorded with an interval […]
calculated. The activities at different inhibitor concentrations were then calculated by taking the control curves’ slope val ues (no […]
(§10) type II) was measured in the same way except that a different substrate, Ac-EAPF-pNA (Ac-Glu-Ala-Pro-Phe-pNA), was used (20
Inhibitory constants Ki were determined by Lineweaver-Burk (LWB) double-reciprocal analysis according to a published protocol.[S5] […]
Well contents were thoroughly mixed using a multichannel pipette, and a plate reader was used to monitor the hydrolysis kinetics […]

[2] = target: T1, α-chymotrypsin from bovine pancreas type II; assay: α-Chymotrypsin inhibition, IC50 at fixed enzyme and substrate concentration; format: biochemical; design: host or cells: bovine pancreas
Source text: (§1) 6. Protease inhibition assays
(§2) With the second method, using
(§3) EpochTM 2 microplate spectrophotometer.
(§4) deionized ultrapure water.
(§5) concentration to higher). […] The
(§6) inhibitor) as the 100% enzyme activity.

[3] = Protocol: The photostability in repeated cycles of reversible photoisomerization was studied on three selected compounds (linear three-peptide […]
samples were prepared in the same manner as for UV-Vis absorption characterization, namely at 20 mM in deoxygenated water.
The UV irradiation was done at spectral range of 320 -400 nm, 167 mW/cm 2 for 15 s; the visible light irradiation at 570 nm, 143 mW/cm2 for 60 s (both using LUMATEC® light source).
Figure S3. Photostability study of the three selected peptides at 20 mM in deoxygenated water at 22°C in 15 cycles of reversible photoisomerization with visible (570 nm, 143 mW/cm2 for 60 s) and UV light (320-400 nm, 167 mW/cm2 for 15 s). The left plots show absorption spectra after each 5 cycles (normalized at 575 nm for ring-closed forms). The right plots show the % of ring-closed form measured as absorbance at 575 nm.

[4] = target: T2, trypsin (Bos taurus, UniProt P00760); conditions: for k H [M^−1 s^−1] (closed): pH 8.2
T2 sequence (P00760 24-246): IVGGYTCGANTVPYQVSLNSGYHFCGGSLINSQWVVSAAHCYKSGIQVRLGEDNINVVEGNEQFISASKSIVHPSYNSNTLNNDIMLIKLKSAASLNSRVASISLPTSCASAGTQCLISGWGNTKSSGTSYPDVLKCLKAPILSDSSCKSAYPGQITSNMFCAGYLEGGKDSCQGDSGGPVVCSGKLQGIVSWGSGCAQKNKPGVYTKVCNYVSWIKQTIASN
Protocol: Analysis of the proteolytic stability
(§11) Proteolytic stability of the peptides was characterized by determining hydrolysis rates (kH) by the action of trypsin in a 50 mM Tris–
(§12) HCl buffer, pH 8.2, supplemented with 25 mM CaCl2 and 0.005% Tween®20 at 22°C. The peptides at a concentration of 50 μM were
(§13) mixed with trypsin (0.5 μM) in a 2 mL total volume. At selected time intervals, 70 μL samples of the mixture were taken, quenched
(§14) by addition 130 μL 2% aqueous formic acid, and immediately analyzed by analytical HPLC. The kH values were calculated from the
(§15) time-dependent data assuming zero-order kinetics (zero-order kinetics applies due to the high substrate/enzyme ratio of 100 to 1).
(§16) For the fitting the linear part of the hydrolysis curve was taken excluding the last time point in which the entire peptide inhibitor was
(§17) analogues could hydrolyze at two positions: at the Lys (P1 position) of the inhibitory loop and after the stabilizing loop’s arginine
(§18) residue (P4 position).[S6] The ultimate product (i.e., cleaved at both positions) had, therefore, a MALDI-TOF-MS detectable mass
(§19) The identity of each peak was confirmed by MALDI -TOF-MS. Detection – 220 nm, hydrolysis time is indicated at each chromatogram.

[5] = target: T3, Bos taurus trypsin 1 (T1) (Bos taurus, UniProt P00760); assay: Trypsin inhibition, Ki by Lineweaver-Burk analysis;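 further: trypsin activity followed by spectrophotometric hydrolysis kinetics of the chromogenic substrate BAPNA in Tris buffer, Ki obtained from double-reciprocal Lineweaver–Burk plots at several substrate concentrations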
T3 sequence (P00760 24-246): T2 sequence (P00760 24-246)
Protocol: as §7, §8, §9
EpochTM 2 microplate spectrophotometer. For trypsin measurements the Tris buffer (50 mM Tris-HCl, 25 mM CaCl2, 0.005% Tween®
For the measurements, a fresh 0.92 µM trypsin solution was prepared from the storage aliquot and kept on ice.
A stock solution of the substrate BAPNA (Nα-Benzoyl-DL-arginine 4-nitroanilide hydrochloride) at the concentration of 50 mM in
aqueous dimethyl sulfoxide (DMSO) (100 mg of BAPNA in 4.6 mL of DMSO:water mixture 1:1) was pre pared and stored at RT.
peptide solutions at the concentration of 100 µM, which was further diluted to 10, 1, or 0.1 µM if required, were prepared in Milli-Q®
For the determination of IC50, a double dilution series of inhibit ors were prepared in a 96 -well plate (12 concentrations, two repeats
for each concentration, 200 µL of Tris buffer in each well). Subsequently, a trypsin solution (20 µL, 150 nM) was added to ea ch well
with the tested peptide and to the control row. Soluti ons in each well were intensely mixed using a multichannel pipette (from lower
concentration to higher). After a pre -incubation period (5 min), the substrate BAPNA was added to each well (20 µL, 25 mM).
solutions were thoroughly mixed with the multicha nnel pipette, and the kinetics of substrate hydrolysis was recorded with an interval
of 1 min between measurements over 20 min. The total volume in each well was 240 µL, final trypsin and BAPNA concentrations
were 12.5 nM and 2.08 mM, respectively. The mea n values of the two repeats of the slope of absorption vs. time curves were
calculated. The activities at different inhibitor concentrations were then calculated by taking the control curves’ slope val ues (no
inhibitor) as the 100% enzyme activity. The inh ibition activity IC 50 against α-chymotrypsin (α-chymotrypsin from bovine pancreas
as §10
Inhibitory constants Ki were determined by Lineweaver-Burk (LWB) double-reciprocal analysis according to a published protocol.[S5]
Briefly, a fresh inhibitor/enzyme mixture was prepared in a glass vial and distributed to 2x6 wells (200 µL in each well, enzyme
concentration after dilution 12 nM). An enzyme without an inhibitor was added to the control wells. Aliquots of varying substrate stock
solutions were added with a multichannel pipette to each well. For trypsin inhibition experiments, BAPNA (20 µL per well of 20, 22.7,
26, 29.8, 34, 40 mM) and for α-chymotrypsin Ac-EAPF-pNA (20 µL per well of 16, 12.48, 10, 8, 6.4, 5.44 mM) were used, respectively.
Well contents were thoroughly mixed using a multichannel pipette, and a plate reader was used to monitor the hydrolysis kinetics
(sampling interval of 1 min over 20 min).

[6] = system: other E. coli strains; conditions: other E. coli strains in MHB medium; ref S7; cited from earlier work
[7] = target: T2, trypsin; assay: Trypsin inhibition, IC50 at fixed enzyme and substrate concentration; format: biochemical
Source text: as §1, §2, §3, §4, §5, §6

[8] = target: T2, trypsin; assay: Proteolytic stability: T1-induced hydrolysis rate constants (kH); conditions: non-photoswitchable reference compound; peptide 50 μM, trypsin 0.5 μM, 50 mM Tris-HCl pH 8.2, 25 mM CaCl2, 0.005% Tween 20, 22°C, analytical HPLC, zero-order fit
Protocol: Analysis of the proteolytic stability
as §11, §12, §13, §14, §15, §16, §17, §18, §19

Ki [1]: 2.8 nM
IC50 ([2]; non-photoswitchable control, enzyme 12.5 nM, Ac-EAPF-pNA 1.33 mM, read-out: IC50, nM (α-chymotrypsin inhibition)): 6.6 nM
Compound: CC[C@H](C)[C@@H]1NC(=O)[C@@H]2CCCN2C(=O)[C@@H]2CCCN2C(=O)[C@H]([C@@H](C)CC)NC(=O)[C@H](CO)NC(=O)[C@H](Cc2ccccc2)NC(=O)[C@H]([C@@H](C)O)NC(=O)[C@@H]2CSSC[C@H](NC1=O)C(=O)N[C@@H](Cc1ccccc1)C(=O)N1CCC[C@H]1C(=O)N[C@@H](CC(=O)O)C(=O)NCC(=O)N[C@@H](CCCNC(=N)N)C(=O)N2 [SFTI‐5F, reference compound] (cyclo(CFPDGRCTFSIPPI); disulfide 1-7)

Compound: CC[C@H](C)[C@@H]1NC(=O)[C@@H]2CCCN2C(=O)[C@@H]2CCCN2C(=O)[C@H]([C@@H](C)CC)NC(=O)[C@H](CO)NC(=O)[C@H](CCCCN)NC(=O)[C@H]([C@@H](C)O)NC(=O)[C@@H]2CSSC[C@H](NC1=O)C(=O)N[C@@H](CCCNC(=N)N)C(=O)N[C@@H](CC(C)C)C(=O)N1CCC[C@H]1C(=O)c1cc(c(C)s1)C1=C(CCC1)c1cc(sc1C)C(=O)N[C@@H](C(C)C)C(=O)N[C@@H](Cc1ccccc1)C(=O)N2 [Peptide S10i] (VFCTKSIPPICRL; disulfide 3-11; linker N-C via X1)
degradation in repeated cycles of reversible photoisomerization [3]: less than 30%
k H (closed) /k H (open) [4]: 4.2
k H [M^−1 s^−1] (closed) [4]: 2.2±0.3×10^−4 M^−1 s^−1
Ki ([5]; K i [nM] (closed)): 44.8 ± 2.2 nM
Ki ([5]; K i [nM] (open)): 5.1 ± 0.4 nM

Compound: CC[C@H](C)[C@H](NC(=O)[C@H](CCCNC(=N)N)NC(=O)[C@H](CCCNC(=N)N)NC(=O)[C@H](Cc1ccccc1)NC(=O)[C@H](CC(C)C)NC(=O)[C@H](CCCNC(=N)N)NC(=O)[C@@H](N)CCCNC(=N)N)C(=O)N[C@@H](CC(C)C)C(=O)N[C@@H](CCCNC(=N)N)C(=O)N[C@@H](Cc1c[nH]c2ccccc12)C(=O)N[C@@H](CC(C)C)C(N)=O [BP100‐RW] (H-RRLFRRILRWL-NH2)
MIC [6]: 0.2 to 0.5 µg/mL

Compound: CC[C@H](C)[C@@H]1NC(=O)[C@@H]2CCCN2C(=O)[C@@H]2CCCN2C(=O)[C@H]([C@@H](C)CC)NC(=O)[C@H](CO)NC(=O)[C@H](CCCCN)NC(=O)[C@H]([C@@H](C)O)NC(=O)[C@@H]2CSSC[C@H](NC1=O)C(=O)N[C@@H](Cc1ccccc1)C(=O)N[C@@H](CC(C)C)C(=O)N1CCC[C@H]1C(=O)c1cc(c(C)s1)C1=C(CCC1)c1cc(sc1C)C(=O)N[C@@H](C(C)C)C(=O)N[C@@H](CCCNC(=N)N)C(=O)N2 [Peptide S10n] (VRCTKSIPPICFL; disulfide 3-11; linker N-C via X1)
IC50 [2]: 50000 to 100000 nM
k H (closed) /k H (open) [4]: 15.7
k H [M^−1 s^−1] (closed) [4]: 3.6±0.3×10^−3 M^−1 s^−1
Ki ([5]; K i [nM] (closed)): 181 ± 7 nM
Ki ([5]; K i [nM] (open)): 17.5 ± 0.7 nM

Compound: CC[C@H](C)[C@@H]1NC(=O)[C@@H]2CCCN2C(=O)[C@@H]2CCCN2C(=O)[C@H]([C@@H](C)CC)NC(=O)[C@H](CO)NC(=O)[C@H](Cc2ccccc2)NC(=O)[C@H]([C@@H](C)O)NC(=O)[C@@H]2CSSC[C@H](NC1=O)C(=O)N[C@@H](Cc1ccccc1)C(=O)N[C@@H](CC(C)C)C(=O)N1CCC[C@H]1C(=O)c1cc(c(C)s1)C1=C(CCC1)c1cc(sc1C)C(=O)N[C@@H](C(C)C)C(=O)N[C@@H](CCCNC(=N)N)C(=O)N2 [Peptide S5F] (VRCTFSIPPICFL; disulfide 3-11; linker N-C via X1)
IC50 [7]: 50000 to 100000 nM

Compound: CC[C@H](C)[C@@H]1NC(=O)[C@@H]2CCCN2C(=O)[C@@H]2CCCN2C(=O)[C@H]([C@@H](C)CC)NC(=O)[C@H](CO)NC(=O)[C@H](CCCCN)NC(=O)[C@H]([C@@H](C)O)NC(=O)[C@H](C)NC(=O)[C@H](CCCNC(=N)N)NC(=O)c2cc(c(C)s2)C2=C(CCC2)c2cc(sc2C)C(=O)[C@@H]2CCCN2C(=O)[C@H](Cc2ccccc2)NC(=O)[C@H](C)NC1=O [Peptide S2] (RATKSIPPIAF; linker N-C via X1)
degradation in repeated cycles of reversible photoisomerization [3]: less than 30%
Ki ([5]; K i [nM] (closed)): 659 ± 33 nM
Ki ([5]; K i [nM] (open)): 203 ± 6 nM

IC50 ([7]; non-photoswitchable reference, trypsin 12.5 nM, BAPNA 2.08 mM, Tris pH 8.2, 5 min pre-incubation, read-out: IC50, nM (trypsin inhibition)): 15.6 nM
k H [M^−1 s^−1] [8]: 2.0±0.2×10^−5 M^−1 s^−1
Compound: CC[C@H](C)[C@@H]1NC(=O)[C@@H]2CCCN2C(=O)[C@@H]2CCCN2C(=O)[C@H]([C@@H](C)CC)NC(=O)[C@H](CO)NC(=O)[C@H](CCCCN)NC(=O)[C@H]([C@@H](C)O)NC(=O)[C@@H]2CSSC[C@H](NC1=O)C(=O)N[C@@H](CCCNC(=N)N)C(=O)N1CCC[C@H]1C(=O)N[C@@H](CC(=O)O)C(=O)NCC(=O)N[C@@H](Cc1ccccc1)C(=O)N2 [SFTI‐1i, reference compound] (cyclo(CRPDGFCTKSIPPI); disulfide 1-7)

Compound: CC(=O)N[C@@H](C)C(=O)N1CCC[C@H]1C(=O)c1cc(C2=C(c3cc(C(=O)N[C@@H](C)C(N)=O)sc3C)CCC2)c(C)s1 [Ac‐Ala‐1‐Ala‐NH2]
degradation in repeated cycles of reversible photoisomerization ([3]; 15 cycles, UV 320-400 nm 167 mW/cm2 15 s, visible 570 nm 143 mW/cm2 60 s, 20 mM in deoxygenated water, 22°C, absorbance 575 nm): less than 30%

Source: article PMC8519022, “Diarylethene‐Based Photoswitchable Inhibitors of Serine Proteases” (Angewandte Chemie (International Ed. in English), 2021)
